Test results published in patent US6537986B2, “Oxazolidinone antibacterial agents having a thiocarbonyl funtionality” (Pharmacia & Upjohn Company, priority 1997, dated 2003).
Converted amounts (≈) assume the structure as drawn. Read-outs that look alike come from different tables or passages of the source.

What was measured:
[1] = tested on: S. pneumoniae (SPNE 9912); assay: MIC, standard agar dilution method; assay type: cell-based; conditions: Table II, Mueller Hinton agar, incubated overnight at 35° C.; for MIC: Streptococcus pneumoniae, read-out: SPNE 9912 MIC
Method: (§1) MIC Test Method The in vitro MICs of test compounds were determined by a standard agar dilution method. […] Serial 2-fold dilutions of each sample are made using 1.0 ml aliquots of sterile distilled water. To each 1.0 ml aliquot of drug is added 9 ml of molten Mueller Hinton agar medium. The drug-supplemented agar is mixed, poured into 15×100 mm petri dishes, and allowed to solidify and dry prior to inoculation. Vials of each of the test organisms are maintained frozen in the vapor phase of a liquid nitrogen freezer. Test cultures are grown overnight at 35° C. on the medium appropriate for the organism. Colonies are harvested with a sterile swab, and cell suspensions are prepared in Trypticase Soy broth (TSB) to equal the turbidity of a 0.5 McFarland standard. A 1:20 dilution of each suspension is made in TSB. […] The plates are incubated overnight at 35° C. Following incubation the Minimum Inhibitory Concentration (MIC μg/ml), the lowest concentration of drug that inhibits visible growth of the organism, is read and recorded.

[2] = tested on: Moraxella catarrhalis (MCAT 30610); assay: MIC, standard agar dilution method; assay type: cell-based; conditions: Table II, Mueller Hinton agar, incubated overnight at 35° C.; for MIC: Moraxella catarrhalis
Method: as §1

[3] = tested on: Enterococcus faecalis (EFAE 9217); assay: MIC, standard agar dilution method; assay type: cell-based; conditions: Table II, key: Enterococcus faecalis, Mueller Hinton agar, incubated overnight at 35° C.; for MIC: read-out: EFAE 9217 MIC
Method: as §1

[4] = tested on: S. aureus (SAUR 9213); assay: MIC, standard agar dilution method; assay type: cell-based; conditions: Table II, Mueller Hinton agar, incubated overnight at 35° C.; for MIC: Staphylococcus aureus, read-out: SAUR 9213 MIC
Method: as §1

[5] = tested on: E. Faecium (EFAE 12712); assay: MIC, standard agar dilution method; assay type: cell-based; conditions: for MIC: Enterococcus faecium, read-out: EFAE 12712 MIC
Method: as §1

[6] = tested on: S. pyogenes (SPYO 152); assay: MIC, standard agar dilution method; assay type: cell-based; conditions: Table II, Mueller Hinton agar, incubated overnight at 35° C.; for MIC: Streptococcus pyogenes, read-out: SPYO 152 MIC
Method: as §1

[7] = tested on: Haemophilus influenzae (HINF 30063); assay: MIC, standard agar dilution method; assay type: cell-based; conditions: Table II, Mueller Hinton agar, incubated overnight at 35° C.; for MIC: Haemophilus influenzae
Method: as §1

[8] = tested on: S. epidermidis (SEPI 30593); assay: MIC, standard agar dilution method; assay type: cell-based; conditions: Table II, Mueller Hinton agar, incubated overnight at 35° C.; for MIC: Staphylococcus epidermidis
Method: as §1

[9] = Table II, key: E. Faecium, agar dilution, Mueller Hinton agar, incubated overnight at 35° C.

| SMILES | MIC [1] | MIC [2] | MIC [3] | MIC [4] | MIC [5] | MIC [6] | MIC [7] | MIC [8] | MIC [5, 9] | melting point | SPNE 9912 MIC [1] | MCAT 30610 MIC [2] | EFAE 9217 MIC [3] | SAUR 9213 MIC [4] | EFAE 12712 MIC [5, 9] | SPYO 152 MIC [6] | HINF 30063 MIC [7] | SEPI 30593 MIC [8] |
| --- | --- | --- | --- | --- | --- | --- | --- | --- | --- | --- | --- | --- | --- | --- | --- | --- | --- | --- |
| CC(=S)NC[C@H]1CN(c2ccc([C@H]3CC[S@@+]([O-])CC3)c(F)c2)C(=O)O1 [Example 7, (S)-cis-N-[[3-[3-Fluoro-4-(tetrahydro-1-oxido-2H-thiopyran-4-yl)phenyl]-2-oxo-5-oxazolidinyl]methyl]ethanethioamide] | < 0.125 µg/mL | 1 µg/mL (≈ 2.6 µM) | 0.5 µg/mL (≈ 1.3 µM) | 0.5 µg/mL (≈ 1.3 µM) | 0.5 µg/mL (≈ 1.3 µM) | 0.25 µg/mL (≈ 0.65 µM) | 4 µg/mL (≈ 10.4 µM) | 0.25 µg/mL (≈ 0.65 µM) | – | – | – | – | – | – | – | – | – | – |
| NC(=S)NC[C@H]1CN(c2ccc([C@H]3CC[S@@+]([O-])CC3)c(F)c2)C(=O)O1 [Example 8, (S)-cis-[[3-[3-Fluoro-4-(tetrahydro-1-oxido-2H-thiopyran-4-yl)phenyl]-2-oxo-5-oxazolidinyl]methyl]thiourea] | < 0.125 µg/mL | 2 µg/mL (≈ 5.19 µM) | 1 µg/mL (≈ 2.59 µM) | 2 µg/mL (≈ 5.19 µM) | – | 0.25 µg/mL (≈ 0.649 µM) | 4 µg/mL (≈ 10.4 µM) | 1 µg/mL (≈ 2.59 µM) | 0.5 µg/mL (≈ 1.3 µM) | – | – | – | – | – | – | – | – | – |
| CC(=S)NC[C@H]1CN(c2ccc([C@H]3CC[S@+]([O-])CC3)c(F)c2)C(=O)O1 [Example 9, (S)-trans-N-[[3-[3-Fluoro-4-(tetrahydro-1-oxido-2H-thiopyran-4-yl)phenyl]-2-oxo-5-oxazolidinyl]methyl]ethanethioamide] | < 0.125 µg/mL | 0.5 µg/mL (≈ 1.3 µM) | 0.25 µg/mL (≈ 0.65 µM) | 0.5 µg/mL (≈ 1.3 µM) | – | < 0.125 µg/mL | 2 µg/mL (≈ 5.2 µM) | 0.25 µg/mL (≈ 0.65 µM) | 0.25 µg/mL (≈ 0.65 µM) | – | – | – | – | – | – | – | – | – |
| NC(=S)NC[C@H]1CN(c2ccc(C3CC[S+]([O-])CC3)c(F)c2)C(=O)O1 (stereo partly drawn) [Example 10, (S)-trans-[[3-[3-Fluoro-4-(tetrahydro-1-oxido-2H-thiopyran4-yl)phenyl]-2-oxo-5-oxazolidinyl]methyl]thiourea] | < 0.125 µg/mL | 1 µg/mL (≈ 2.59 µM) | 1 µg/mL (≈ 2.59 µM) | 2 µg/mL (≈ 5.19 µM) | – | 0.25 µg/mL (≈ 0.649 µM) | 2 µg/mL (≈ 5.19 µM) | 1 µg/mL (≈ 2.59 µM) | 0.5 µg/mL (≈ 1.3 µM) | – | – | – | – | – | – | – | – | – |
| CC(=S)NC[C@H]1CN(c2ccc(C3CCS(=O)(=O)CC3)c(F)c2)C(=O)O1 [Example 11, (S)-N-[[3-[3-Fluoro-4-(tetrahydro-1,1-dioxido-2H-thiopyran-4-yl)phenyl]-2-oxo-5-oxazolidinyl]methyl]ethanethioamide] | < 0.125 µg/mL | 1 µg/mL (≈ 2.5 µM) | 0.25 µg/mL (≈ 0.624 µM) | 0.25 µg/mL (≈ 0.624 µM) | – | 0.25 µg/mL (≈ 0.624 µM) | 2 µg/mL (≈ 4.99 µM) | 0.25 µg/mL (≈ 0.624 µM) | 0.25 µg/mL (≈ 0.624 µM) | – | – | – | – | – | – | – | – | – |
| NC(=S)NC[C@H]1CN(c2ccc(C3CCS(=O)(=O)CC3)c(F)c2)C(=O)O1 [Example 12, (S)-N-[[3-[3-Fluoro-4-(tetrahydro-1,1-dioxido-2H-thiopyran-4-yl)phenyl]-2-oxo-5-oxazolidinyl]methyl]thiourea] | < 0.125 µg/mL | 0.5 µg/mL (≈ 1.25 µM) | 0.5 µg/mL (≈ 1.25 µM) | 1 µg/mL (≈ 2.49 µM) | – | < 0.125 µg/mL | 1 µg/mL (≈ 2.49 µM) | 0.5 µg/mL (≈ 1.25 µM) | 0.25 µg/mL (≈ 0.623 µM) | – | – | – | – | – | – | – | – | – |
| O=C1O[C@@H](CNC=S)CN1c1ccc(N2CCOCC2)c(F)c1 [Example 13, (S)-N-[[3-[3-Fluoro-4-(4-morpholinyl)phenyl]-2-oxo-5-oxazolidinyl]methyl]-thioformamide] | 0.5 µg/mL (≈ 1.47 µM) | 8 µg/mL (≈ 23.6 µM) | 2 µg/mL (≈ 5.89 µM) | 1 µg/mL (≈ 2.95 µM) | – | 1 µg/mL (≈ 2.95 µM) | > 16 µg/mL | 1 µg/mL (≈ 2.95 µM) | 2 µg/mL (≈ 5.89 µM) | 150 to 155 °C (dec.) | – | – | – | – | – | – | – | – |
| CCC(=S)NC[C@H]1CN(c2ccc(N3CCOCC3)c(F)c2)C(=O)O1 [Example 14, (S)-N-[[3-[3-Fluoro-4-(4-morpholinyl)phenyl]-2-oxo-5-oxazolidinyl]methyl]thiopropion-amide] | 0.25 µg/mL (≈ 0.68 µM) | 1 µg/mL (≈ 2.72 µM) | 1 µg/mL (≈ 2.72 µM) | 1 µg/mL (≈ 2.72 µM) | – | 0.5 µg/mL (≈ 1.36 µM) | 8 µg/mL (≈ 21.8 µM) | 0.5 µg/mL (≈ 1.36 µM) | 1 µg/mL (≈ 2.72 µM) | 138 to 139 °C | – | – | – | – | – | – | – | – |
| O=C1O[C@@H](CNC(=S)CCl)CN1c1ccc(N2CCOCC2)c(F)c1 [Example 15, (S)-N-[[3-[3-Fluoro-4-(4-morpholinyl)phenyl]-2-oxo-5-oxrazolidinyl]methyl]-2-chlorotlioacetamide] | 4 µg/mL (≈ 10.3 µM) | 64 µg/mL (≈ 165 µM) | 32 µg/mL (≈ 82.5 µM) | 32 µg/mL (≈ 82.5 µM) | – | 8 µg/mL (≈ 20.6 µM) | > 64 µg/mL | 16 µg/mL (≈ 41.3 µM) | 32 µg/mL (≈ 82.5 µM) | – | – | – | – | – | – | – | – | – |
| O=C1O[C@@H](CNC(=S)C(F)(F)F)CN1c1ccc(N2CCOCC2)c(F)c1 [Example 16, (S)-N-[[3-[3-Fluoro-4-(4-moropholinyl)phenyl]-2-oxo-5-oxazolidinyl]methyl]-α,α,α-trifluorothioacetamide] | 2 µg/mL (≈ 4.91 µM) | 32 µg/mL (≈ 78.5 µM) | 16 µg/mL (≈ 39.3 µM) | 8 µg/mL (≈ 19.6 µM) | – | 8 µg/mL (≈ 19.6 µM) | > 64 µg/mL | 8 µg/mL (≈ 19.6 µM) | 16 µg/mL (≈ 39.3 µM) | 151 to 152 °C | – | – | – | – | – | – | – | – |
| N#CCC(=S)NC[C@H]1CN(c2ccc(N3CCOCC3)c(F)c2)C(=O)O1 [Example 19, (S)-N-[[3-[3-Fluoro-4-(4-morpholinyl)phenyl]-2-oxo-5-10 oxazolidinyl]methyl]-α-eyanothioacetamnide] | – | – | – | – | – | – | – | – | – | – | 16 µg/mL | 32 µg/mL | 32 µg/mL | 32 µg/mL | 32 µg/mL | 16 µg/mL | 64 µg/mL | 16 µg/mL |
| CC(=S)NC[C@H]1CN(c2ccc(-n3cncn3)c(F)c2)C(=O)O1 [Example 22] | < 0.125 µg/mL | 2 µg/mL (≈ 5.96 µM) | 1 µg/mL (≈ 2.98 µM) | 0.5 µg/mL (≈ 1.49 µM) | – | 0.25 µg/mL (≈ 0.745 µM) | 4 µg/mL (≈ 11.9 µM) | 0.5 µg/mL (≈ 1.49 µM) | 1 µg/mL (≈ 2.98 µM) | – | – | – | – | – | – | – | – | – |
| CC(=S)NC[C@H]1CN(c2ccc(N3CCS(=O)(=O)CC3)c(F)c2)C(=O)O1 [Example 28, (S)-N-[[3-[3-Fluoro-4-(4-thiomorpholinyl)phenyl]-2-oxo-5-oxazolidinyl]methyl]thio-acetamide, thiomorpholine S, S-dioxide] | – | – | – | – | – | – | – | – | – | – | 0.25 µg/mL | 1 µg/mL | 0.5 µg/mL | 0.5 µg/mL | 0.5 µg/mL | 0.25 µg/mL | 2 µg/mL | 0.25 µg/mL |
| CSC(=S)NC[C@H]1CN(c2ccc(N3CCOCC3)c(F)c2)C(=O)O1 [Example 34] | – | – | – | – | – | – | – | – | – | – | 0.5 µg/mL | 4 µg/mL | 2 µg/mL | 2 µg/mL | 2 µg/mL | 1 µg/mL | >16 µg/mL | 1 µg/mL |
| COC(=S)NC[C@H]1CN(c2ccc(N3CCOCC3)c(F)c2)C(=O)O1 [Example 35] | – | – | – | – | – | – | – | – | – | – | 0.25 µg/mL | 2 µg/mL | 1 µg/mL | 1 µg/mL | 1 µg/mL | 0.5 µg/mL | 16 µg/mL | 0.5 µg/mL |
| COC(=S)NC[C@H]1CN(c2ccc(N3CC[S+]([O-])CC3)c(F)c2)C(=O)O1 [Example 100, (S)-N-[[3-[3-Fluoro-4-(4-thiomorpholinyl)phenyl]-2-oxo-5-oxazolidinyl]methyl]-O-methylthiocarbamate, thiomorpholine S-oxide] | – | – | – | – | – | – | – | – | – | 208 to 209 °C | – | – | – | – | – | – | – | – |
| CC(=S)NC[C@H]1CN(c2ccc(N3CCCSCC3)cc2)C(=O)O1 [Example 534, (5S)-N-[[3-[4-(Tetrahydro-1,4-thiazepin-4(5H)-yl)phenyl]-2-oxo-5-oxazolidinyl]methyl]thioacetamide] | – | – | – | – | – | – | – | – | – | 129 to 131 °C | – | – | – | – | – | – | – | – |
